According to patent US9708282B1, “Anti-inflammatory and antiepileptic neuroprotective statin compounds” (NEURON BIOPHARMA, S.A., priority 2013, dated 2017):

Assays:
transgenic ApoB100 mice = assay: Hypocholesterolemic effect in endogenous (familial) hypercholesterolemia model; format: in vivo; conditions: 50 mg/kg i.p., 12 h after treatment, male ApoB100 mice
Experimental: The mice were inoculated i.p. with 50 mg/kg of the compounds. Control mice were inoculated with equivalent volumes of the vehicle. Blood was drawn in fasting conditions before treating the animals and 12 h after treatments. Plasma, which was subsequently frozen, was obtained in both cases. The plasma total, LDL and HDL cholesterol concentration was quantified by enzymatic and spectrophotometric methods. After determining cholesterol levels and cholesterol fraction levels (baseline levels and 12 h after treatments), the change thereof with respect to the baseline level was calculated, and the results were depicted as a percentage with respect to the control group.

[1] = target: T1, 3-hydroxy-3-methylglutaryl coenzyme A reductase (HMGCR) (Homo sapiens, UniProt P04035); assay: Inhibition of HMGCR enzymatic activity in vitro (NADPH absorbance at 340 nm); format: biochemical; conditions: hydroxy acid forms
T1 construct: representing oxidation of NADPH by the catalytic subunit of HMGCR in the presence of the substrate
T1 sequence (P04035 426-888 limits assumed): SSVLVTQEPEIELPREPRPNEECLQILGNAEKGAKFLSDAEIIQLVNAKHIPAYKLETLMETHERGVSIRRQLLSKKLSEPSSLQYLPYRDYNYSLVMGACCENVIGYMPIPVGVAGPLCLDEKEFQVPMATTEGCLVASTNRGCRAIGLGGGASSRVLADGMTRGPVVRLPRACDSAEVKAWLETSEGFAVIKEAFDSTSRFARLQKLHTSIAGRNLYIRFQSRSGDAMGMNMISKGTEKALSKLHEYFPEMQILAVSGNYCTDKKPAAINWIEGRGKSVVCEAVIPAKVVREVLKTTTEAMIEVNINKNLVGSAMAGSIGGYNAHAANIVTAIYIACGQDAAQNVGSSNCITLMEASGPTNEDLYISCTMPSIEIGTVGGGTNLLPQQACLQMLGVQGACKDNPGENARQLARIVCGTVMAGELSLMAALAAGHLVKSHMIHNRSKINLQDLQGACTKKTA
Source text: The degree of inhibition of the HMGCR enzyme in vitro by NST0076 and NST0078 in the hydroxy acid form thereof was studied.
During the reaction, HMGCR uses NADPH (Nicotinamide Adenine Dinucleotide Phosphate) as reducing agent and 3-hydroxy-3-methylglutaryl coenzyme A (HMG-CoA) as substrate. Mevalonic acid is obtained as a reaction product, and it serves as substrate for the subsequent reaction to continue with cholesterol synthesis. The enzymatic reaction object of study is schematized as follows: HMG-CoA+2.NADPH+2.H^+→Mevalonic acid+2.NADP^++CoASH
This in vitro assay is based on the spectrophotometric measurement of the decrease in absorbance at 340 nm, representing oxidation of NADPH by the catalytic subunit of HMGCR in the presence of the substrate. […] Briefly, the assay is performed in a 96-well plate with reaction buffer 50 mM KH2PO4, 1 M KCl, 2 mg/ml bovine serum albumin (BSA) and 5 mM DTT, at pH=7.3, and the concentrations of the reagents in the reaction mixture are 0.2 mM HMG-CoA, 3 μU/point HMGCR and 0.2 mM NADPH. The plate is read in a spectrophotometer at 340 nm and 37° C.

β-secretase (BACE) [2] = target: T2, β-secretase (BACE) (Mus musculus, UniProt P56818); assay: β-secretase (BACE) enzymatic activity in the brain of mice after i.p. administration; format: in vivo; conditions: 50 mg/kg i.p., 24 h after administration, FVB mice, brain homogenates
T2 construct: contacting a BACE-specific, fluorogenic substrate with a brain homogenate in which the enzyme is present; from tissue; host or cells: brain (without cerebellum) of FVB mice
Experimental: During the reaction, contacting a BACE-specific, fluorogenic substrate with a brain homogenate in which the enzyme is present allows quantifying the enzyme activity by means of measuring the fluorescence emitted.
Female FVB mice 4 months of age were treated i.p. with 50 mg/kg of the compounds or with equivalent volumes of the vehicle (n=6 mice/group). After 24 h, the animals were sacrificed and the brain was extracted and frozen at −20° C., first disposing of the cerebellum. After freezing the brains for 24 h, they were homogenized by making a 1/100 dilution in 0.1 M sodium acetate at pH 4. The samples were incubated for 10 minutes under cold conditions to favor lysis and to obtain the extract after centrifuging at 10,000 g for 10 minutes. The enzymatic reaction was then carried out. […] 50 μL of a 20 μM fluorogenic BACE substrate (Mca-[…]) were added to the samples and controls, the final concentration in the well being 10 μM and the total reaction volume being 100 μL. […] The results obtained in arbitrary units were normalized by the amount of protein that was determined by the bicinchoninic acid (BCA) method.

[3] = Concentrations in the brain of mice after i.p. administration (UPLC-MS); format: in vivo; conditions: male FVB mice, lactone forms; for AUC in the brain: 50 mg/kg i.p., 1, 2, 4 and 6 h; for Brain AUC and Cmax compared with simvastatin: 50 mg/kg i.p.
Experimental: (§1) Male FVB mice 4 months of age were treated i.p. with 50 mg/kg of the compounds (n=4-8 mice/group/time). The animals were sacrificed 1, 2, 4 and 6 h after treatment by means of injecting Eutanax, the blood and brain being extracted after perfusion with PBS. The plasma obtained from the blood and the entire brain were frozen at −20° C. until analysis. The compounds were extracted from the tissues with ethyl acetate and resuspended in ethanol for subsequent UPLC-MS quantification. Fluvastatin was used as an internal standard.

[4] = test system: neurons of the hippocampus; conditions: 3.125 mg/kg i.p. 24 h and 0.5 h before kainate 23 mg/kg, then 1 dose/day for three days
reactive astroglia = assay: Protection against brain inflammation (astrogliosis, GFAP immunohistochemistry) induced by kainate; format: in vivo, mice; conditions: 3.125 mg/kg i.p. 24 h and 0.5 h before kainate 23 mg/kg, then 1 dose/day for three days; surviving animals
Experimental: Based on the coronal sections of the brain obtained during the experiment described above, astrogliosis was analyzed by means of bright field immunohistochemistry for the glial fibrillary acidic protein (GFAP) in surviving animals.
The degree to which astrogliosis has spread (or score) was determined on a scale of intensity from 0 to 3, where zero indicates the absence of reactive astroglia and three indicates maximum reactive astroglia, for each of the groups.

[5] = Concentrations in plasma of mice after i.p. administration (UPLC-MS); format: in vivo; conditions: male FVB mice, lactone forms; for Plasma levels compared with simvastatin: 50 mg/kg i.p.; for AUC: mouse, plasma, ip, 50 mg/kg i.p., 1, 2, 4 and 6 h
Experimental: as §1

FVB/NRj mice = assay: Protection against epilepsy caused by kainate (Racine scale); conditions: 3.125 mg/kg i.p. 24 h and 0.5 h before kainate 23 mg/kg
β-secretase (BACE) [6] = assay: β-secretase (BACE) enzymatic activity in the brain of zebra fish after i.p. administration; format: in vivo; conditions: 100 mg/kg i.p., 24 h after administration, zebra fish 24 months of age
Experimental: The compounds object of study were prepared at different concentrations according to the weight of the animals in 0.5% methylcellulose in physiological saline, homogeneous suspensions thereof being obtained. Female zebra fish 24 months of age were treated i.p. with 100 mg/kg of the compounds or with equivalent volumes of the vehicle (n=8 fish/group). After 24 h, the animals were sacrificed and the brain was extracted and frozen at −20° C. After freezing the brains for 24 h, they were homogenized in 500 μL of 0.1 M sodium acetate at pH 4. The samples were incubated for 10 minutes under cold conditions to favor lysis and to obtain the extract after centrifuging at 10,000 g for 10 minutes. The enzymatic reaction was then carried out in the same way as in the case mice.

T2 sequence (P56818 46-501): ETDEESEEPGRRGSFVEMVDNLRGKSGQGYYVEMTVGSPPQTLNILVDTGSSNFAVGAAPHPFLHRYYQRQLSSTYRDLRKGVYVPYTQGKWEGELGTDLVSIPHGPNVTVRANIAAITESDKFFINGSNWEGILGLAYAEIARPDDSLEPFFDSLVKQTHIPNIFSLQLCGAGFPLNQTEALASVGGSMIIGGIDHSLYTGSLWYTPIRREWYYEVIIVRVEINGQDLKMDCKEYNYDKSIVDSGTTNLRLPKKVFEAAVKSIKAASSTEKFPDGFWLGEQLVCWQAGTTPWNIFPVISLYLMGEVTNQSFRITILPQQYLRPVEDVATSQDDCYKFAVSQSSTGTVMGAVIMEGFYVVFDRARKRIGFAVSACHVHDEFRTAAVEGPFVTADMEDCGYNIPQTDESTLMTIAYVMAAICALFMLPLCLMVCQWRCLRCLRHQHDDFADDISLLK

Row | SMILES | Hypocholesterolemic effect (change in plasma total, LDL and HDL cholesterol) (transgenic ApoB100 mice) | HMGCR inhibition (in words) [1] | HMGCR inhibition, times less than simvastatin [1] | IC50 ([1]; 20 min, 37° C., read-out: IC50 (concentration at which 50% of the HMGCR enzymatic activity is inhibited)) | BACE enzymatic activity in the brain of mice (β-secretase (BACE) [2]) | AUC in the brain [3] | Brain AUC and Cmax compared with simvastatin [3] | Percentage of animals without damage (hippocampus) [4] | Degree of astrogliosis induced by kainate (score 0 to 3) (reactive astroglia) | Plasma levels compared with simvastatin [5] | AUC [5] | Levels of epilepsy (AUC of Racine scale over 120 min, with respect to Vehicle+KA group) (FVB/NRj mice) | BACE enzymatic activity in the brain of zebra fish (β-secretase (BACE) [6])
1 | CCC(CC)C(=O)O[C@H]1C[C@@H](C)C=C2C=C[C@H](C)[C@H](CC[C@@H]3C[C@@H](O)C(C)C(=O)O3)[C@H]21 (stereo partly drawn) [NST0076, (1S,3R,7S,8S,8aR)-8-(2-((2R,4R)-4-hydroxy-5-methyl-6-oxo-tetrahydro-2H-pyran-2-yl)ethyl)-3,7-dimethyl-1,2,3,7,8,8a-hexahydro-naphthalen-1-yl 2-ethylbutanoate] | did not show any hypocholesterolemic effect | do not significantly inhibit the HMGCR enzyme | about 28 times | 603 ± 177 nM | capable of reducing BACE enzymatic activity in a statistically significant manner | 37 µg·h/g | AUC and Cmax values surprisingly greater than those of simvastatin | 50% | protected against astrogliosis induced by kainate in all the studied regions | plasma levels considerably greater than simvastatin | 12000 ng·h/mL | greater reduction of the levels of epilepsy compared to simvastatin | 
2 | CCC(CC)C(=O)O[C@H]1C[C@@H](C)C=C2C=C[C@H](C)[C@H](CC[C@@H]3C[C@@H](O)C(CC)C(=O)O3)[C@H]21 (stereo partly drawn) [NST0078, (1S,3R,7S,8S,8aR)-8-(2-((2R,4R)-5-ethyl-4-hydroxy-6-oxo-tetrahydro-2H-pyran-2-yl)ethyl)-3,7-dimethyl-1,2,3,7,8,8a-hexahydronaphthalen-1-yl 2-ethylbutanoate] | did not show any hypocholesterolemic effect |  | about 1,900 times |  | capable of reducing BACE enzymatic activity in a statistically significant manner | 17 µg·h/g | AUC and Cmax values surprisingly greater than those of simvastatin | 60% | protected against astrogliosis induced by kainate in all the studied regions | plasma levels considerably greater than simvastatin | 17000 ng·h/mL | greater reduction of the levels of epilepsy compared to simvastatin | capable of reducing BACE enzymatic activity with respect to the control in a statistically significant manner
3 | C[C@H]1C=C2C=C[C@H](C)[C@H](CC[C@@H]3C[C@@H](O)CC(=O)O3)[C@H]2[C@@H](O)C1 [monacolin J, reference compound] |  | HMGCR inhibitory capacity much less than that of simvastatin |  |  |  |  |  |  |  |  |  |  | 
4 | CCC(C)(C)C(=O)O[C@H]1C[C@@H](C)C=C2C=C[C@H](C)[C@H](CC[C@@H]3C[C@@H](O)CC(=O)O3)[C@H]21 [simvastatin, reference compound] |  |  |  |  |  |  |  | 25% |  |  |  |  | 
